Test results reported in PubChem BioAssay (NCI).
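How tested: cells in 96-well plates exposed to compound for 48 hours at five concentrations. GI50 marks 50% less growth. TGI: total growth inhibition.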

Experiments:
Assay in all cases: inhibition of tumour cell growth, NCI panel, 48 h
[1] = test system: K-562 leukemia
[2] = test system: EKVX NSCLC
[3] = test system: CCRF-CEM leukemia
[4] = test system: KM12 colon
[5] = test system: IGROV1 ovarian
[6] = test system: OVCAR-4 ovarian
[7] = test system: HCT-116 colon
[8] = test system: OVCAR-5 ovarian
[9] = test system: SF-295 CNS
[10] = test system: TK-10 renal

For `CCc1c[nH]c2ncnc(N3CC[C@@](N)(CNC(=O)c4ccc(F)cc4F)C3)c12`, the GI50 [1] was 48.3 µM, the TGI [1] was over 100 µM and the GI50 [2] was 35 µM. For the same compound, the TGI [2] was over 100 µM, the GI50 [3] was 28.3 µM and the TGI [3] was over 96.4 µM. The GI50 [4] was 12.6 µM, the TGI [4] was over 100 µM and the GI50 [5] was 20.1 µM. The TGI [5] was over 94.9 µM, the GI50 [6] was 77.2 µM and the TGI [6] was over 100 µM. For the same compound, the GI50 [7] was 25 µM, the TGI [7] was over 100 µM and the GI50 [8] was 80 µM. For the same compound, the TGI [8] was over 100 µM, the GI50 [9] was 26.2 µM and the TGI [9] was over 100 µM. For the same compound, the GI50 [10] was 22.2 µM and the TGI [10] was over 83.9 µM.

Work on `Clc1ccc(CN2COc3c(cc(Cl)c4cccnc34)C2)cc1` yielded a TGI [1] of 3.74 µM, a TGI [2] of 14.2 µM and a TGI [3] of 4.94 µM. For the same compound, the TGI [4] was 6.32 µM, the TGI [5] was 8 µM and the TGI [6] was 8.26 µM. For the same compound, the TGI [7] was 5.49 µM, the TGI [8] was 8.11 µM and the TGI [9] was 7.1 µM. For the same compound, the TGI [10] was 13.4 µM.

`CCO[C@@H]1C2C=CC(C2)[C@H]1[N+](=O)[O-]` (stereo not given in full) gave a TGI [1] of over 100 µM, a TGI [2] of over 100 µM and a TGI [3] of over 100 µM. The TGI [4] was over 100 µM, the TGI [5] was over 100 µM and the TGI [6] was over 100 µM. The TGI [7] was over 100 µM, the TGI [8] was over 100 µM and the TGI [9] was over 100 µM. It also gave a TGI [10] of over 100 µM.

`CC(=O)Oc1ccccc1C(=O)C1c2cccc(O)c2C(=O)c2c(O)cccc21` showed a TGI [1] of over 100 µM, a TGI [2] of 6.15 µM and a TGI [3] of 2.77 µM. For the same compound, the TGI [4] was 1.59 µM, the TGI [5] was 2.85 µM and the TGI [6] was 4.48 µM. It also gave a TGI [7] of 3.41 µM, a TGI [8] of 6.22 µM and a TGI [9] of 2.65 µM. For the same compound, the TGI [10] was 15.4 µM.

For `COc1cc(/C=C(/c2ccccc2)[N+](=O)[O-])c(OC)c2c1OCO2`, the GI50 [1] was 0.373 µM, the TGI [1] was 13.7 µM and the GI50 [2] was 1.69 µM. For the same compound, the TGI [2] was 3.32 µM, the GI50 [3] was 0.522 µM and the TGI [3] was over 100 µM. The GI50 [4] was 1.84 µM, the TGI [4] was 3.44 µM and the GI50 [5] was 1.16 µM. It also gave a TGI [5] of 2.6 µM, a GI50 [6] of 1.74 µM and a TGI [6] of 3.15 µM. It also gave a GI50 [7] of 1.3 µM, a TGI [7] of 3 µM and a GI50 [8] of 1.76 µM. For the same compound, the TGI [8] was 3.58 µM, the GI50 [9] was 2.78 µM and the TGI [9] was 7.88 µM. For the same compound, the GI50 [10] was 2.05 µM and the TGI [10] was 3.81 µM.

`O=c1oc2ccc(Cl)cc2c(=O)n1-c1ccc(I)cc1F` was tested, and the GI50 [1] was 0.176 µM, the TGI [1] was over 100 µM and the GI50 [2] was 0.444 µM. It also gave a TGI [2] of 4.98 µM, a GI50 [3] of 0.702 µM and a TGI [3] of 5.14 µM. For the same compound, the GI50 [4] was 2.21 µM, the TGI [4] was 5.55 µM and the GI50 [5] was 0.19 µM. The TGI [5] was over 42.3 µM, the GI50 [6] was 0.225 µM and the TGI [6] was over 87.2 µM. The GI50 [7] was 0.255 µM, the TGI [7] was 1.35 µM and the GI50 [8] was 3.58 µM. The TGI [8] was over 100 µM, the GI50 [9] was 1.03 µM and the TGI [9] was 2.79 µM. It also gave a GI50 [10] of 0.605 µM and a TGI [10] of 11.4 µM.

`COC(=O)[C@]1(C)CCC[C@@]2(C)C1CCC1=C[C@@]3(C(C)C)CC[C@]12OO3` (stereo not given in full) was tested, and the TGI [1] was over 100 µM, the TGI [2] was over 100 µM and the TGI [3] was 45.1 µM. The TGI [4] was 66.5 µM, the TGI [5] was over 100 µM and the TGI [6] was over 100 µM. The TGI [7] was 73 µM, the TGI [8] was 84.9 µM and the TGI [9] was 64.4 µM. The TGI [10] was over 100 µM.

`CN(C)C(=O)C1CCC(=C2C(=O)OC(C)(C)OC2=O)N1C` (stereo not given) was tested, and the TGI [1] was over 100 µM, the TGI [2] was over 100 µM and the TGI [3] was over 100 µM. For the same compound, the TGI [4] was over 100 µM, the TGI [5] was over 100 µM and the TGI [6] was over 100 µM. It also gave a TGI [7] of over 100 µM, a TGI [8] of over 100 µM and a TGI [9] of over 100 µM. It also gave a TGI [10] of over 100 µM.

In the case of `COC(=O)C(=O)C(C(=O)C=C(C)C)C(=O)C(=O)Nc1cccc(C(C)=O)c1` (stereo not given), the TGI [1] is reported as over 100 µM, the TGI [2] is reported as over 100 µM and the TGI [3] is reported as over 100 µM. The TGI [4] was over 100 µM, the TGI [5] was over 100 µM and the TGI [6] was over 100 µM. It also gave a TGI [7] of over 100 µM, a TGI [8] of over 100 µM and a TGI [9] of over 100 µM. For the same compound, the TGI [10] was over 100 µM.

`COC(=O)C(Cc1nc2ccc(Cl)cc2[nH]c1=O)C(=O)C(=O)Nc1ccccc1[N+](=O)[O-]` (stereo not given) showed a TGI [1] of over 100 µM, a TGI [2] of over 100 µM and a TGI [3] of over 100 µM. For the same compound, the TGI [4] was over 100 µM, the TGI [5] was over 100 µM and the TGI [6] was over 100 µM. The TGI [7] was over 100 µM, the TGI [8] was over 100 µM and the TGI [9] was over 100 µM. The TGI [10] was over 100 µM.

`CCOC(=O)N1C2C=C(C)C(C3C(C)C(=O)N31)N(C(=O)c1ccccc1)O2` (stereo not given) showed a TGI [1] of over 100 µM, a TGI [2] of over 100 µM and a TGI [3] of over 100 µM. For the same compound, the TGI [4] was over 100 µM, the TGI [5] was over 100 µM and the TGI [6] was over 100 µM. For the same compound, the TGI [7] was over 100 µM, the TGI [8] was over 100 µM and the TGI [9] was over 100 µM. It also gave a TGI [10] of over 100 µM.

For `C[C@H](CSC(=O)c1ccccc1)C(=O)N1c2ccccc2C[C@H]1C(=O)O`, the TGI [1] was over 100 µM, the TGI [2] was over 100 µM and the TGI [3] was over 100 µM. The TGI [4] was over 10 µM, the TGI [5] was over 100 µM and the TGI [6] was over 100 µM. For the same compound, the TGI [7] was over 100 µM, the TGI [8] was over 100 µM and the TGI [9] was over 100 µM. For the same compound, the TGI [10] was over 100 µM.

`CC(C)=CC(=O)CC(=O)C(=O)Nc1ccc(Cl)c(Cl)c1` showed a TGI [1] of over 100 µM, a TGI [2] of over 100 µM and a TGI [3] of over 100 µM. It also gave a TGI [4] of over 100 µM, a TGI [5] of over 100 µM and a TGI [6] of over 100 µM. For the same compound, the TGI [7] was over 100 µM, the TGI [8] was over 100 µM and the TGI [9] was over 100 µM. The TGI [10] was over 100 µM.

With `CN(C)c1ccc(N=Nc2c([O-])ccc3ccccc23)cc1.[C-]#[O+].[C-]#[O+].[Ir]` the GI50 [1] was 29.4 µM, the TGI [1] was over 100 µM and the GI50 [2] was 20.6 µM. It also gave a TGI [2] of 64.1 µM, a GI50 [3] of 8.08 µM and a TGI [3] of 39.9 µM. For the same compound, the GI50 [4] was over 100 µM, the TGI [4] was over 100 µM and the GI50 [5] was 17.9 µM. For the same compound, the TGI [5] was 52.7 µM, the GI50 [6] was 25.4 µM and the TGI [6] was 47.8 µM. The GI50 [7] was 19.5 µM, the TGI [7] was 38.4 µM and the GI50 [8] was over 42.1 µM. It also gave a TGI [8] of over 58.7 µM, a GI50 [9] of over 100 µM and a TGI [9] of over 100 µM. It also gave a GI50 [10] of 23.8 µM and a TGI [10] of 51.7 µM.

`O=c1[nH]cc(OCC(F)(F)F)c(=O)[nH]1` was tested, and the TGI [1] was over 100 µM, the TGI [2] was over 100 µM and the TGI [3] was over 100 µM. For the same compound, the TGI [4] was over 100 µM, the TGI [5] was over 100 µM and the TGI [6] was over 100 µM. It also gave a TGI [7] of over 100 µM, a TGI [8] of over 100 µM and a TGI [9] of over 100 µM. It also gave a TGI [10] of over 100 µM.

For `Fc1ccc(Nc2nccc(-c3c(-c4ccc(C(F)(F)F)cc4)nn4ncccc34)n2)cc1F`, the GI50 [1] was over 25 µM, the TGI [1] was over 25 µM and the GI50 [2] was over 25 µM. It also gave a TGI [2] of over 25 µM, a GI50 [3] of over 25 µM and a TGI [3] of over 25 µM. The GI50 [4] was over 25 µM, the TGI [4] was over 25 µM and the GI50 [5] was over 25 µM. It also gave a TGI [5] of over 25 µM, a GI50 [6] of over 25 µM and a TGI [6] of over 25 µM. It also gave a GI50 [7] of over 25 µM, a TGI [7] of over 25 µM and a GI50 [8] of over 25 µM. The TGI [8] was over 25 µM, the GI50 [9] was over 18.9 µM and the TGI [9] was over 25 µM. The GI50 [10] was over 25 µM and the TGI [10] was over 25 µM.
